Assay results: patent publication US9085607B2, “ACH-0142684 sodium salt polymorph, composition including the same, and method of manufacture thereof” (Achillion Pharmaceuticals Inc., priority 2013, dated 2015)
Entries after “also recorded” stand apart in the source; their conditions may differ.

Legend:
Type in all cases: physicochemical
[1] = Solubility in water after temperature cycling between 40° C. and 5° C.; conditions: thermodynamic from solid, cycling between 40° C. and 5° C. for 2 days
Protocol: (§1) The solubility of ACH-0142684 sodium salt was determined at room temperature using the following procedure. The input material (˜10 mg) was weighed into each of 12 vials, followed by addition of a solvent in multiple aliquots between 50μL to 10-mL at room temperature. Samples were visually inspected for complete dissolution after each solvent addition. The solubility of crystalline ACH-0142684 sodium salt is summarized in TABLE 1, which provides a solubility assessment of amorphous API in 12 solvents. The solubility of API-0142684 in water after temperature cycling between 40° C. and 5° C. for 2 days is ˜50 mg/ml.

[2] = Solubility assessment at room temperature by solvent aliquot addition and visual inspection; conditions: thermodynamic from solid
Protocol: as §1

[3] = Vacuum oven drying and re-analysis by PXRD for form change
Protocol: PXRD diffractograms were acquired using either a Bruker D8 Discovery diffractometer with a HI-STAR GADDS detector or PANalytical X′Pert Pro diffractometer on Si zero-background wafers. All diffractograms were collected using Cu Kα (45 kV/40 mA) radiation and a step size of 0.02° 2θ unless noted otherwise.
A sample of Polymorph A was dried in a vacuum oven at 55° C. overnight with a small flow of nitrogen. FIG. 1 is a graph showing the results of X-ray powder diffraction analysis of pre-dried (lower trace) and post-dried (upper trace) Polymorph A sample. FIG. 2 is a graph showing the results of differential scanning calorimetry overlay of a pre-dried (lower trace) and post-dried (upper trace) Polymorph A sample. FIG. 3 is a graph showing the results of thermogravimetric analysis of the Form A polymorph.
A small amount of Polymorph B was dried in a vacuum oven at 50° C. for 16 hours and the sample was re-analyzed by PXRD to observe if there were any form changes.

[4] = Competitive ripening study between Polymorphs A and G; conditions: slurry in 2-propanol, room temperature, sample isolated after 48 hours
Protocol: A competitive ripening study was conducted between Polymorphs A and G at room temperature to determine their relative stabilities. Approximately 5 mg of Polymorphs A and G were added to a 2-mL HPLC vial containing 0.5 mL of 2-propanol. The suspension was stirred at room temperature for two days. Aliquots of the slurry were filtered after 20 and 48 hours. The isolated solids were analyzed by PXRD to determine any form conversion.

[5] = Crystallization screening (temperature cycling, cooling, evaporation, vapor diffusion), form stability; conditions: 48 solvents/mixtures
Protocol: Crystallization experiments were conducted in 48 solvents and aqueous mixtures using the following three crystallization modes:
Temperature-cycled ripening of API slurries between 5-40° C. for 48 hours;
Cooling of saturated solutions prepared at RT to 5° C. (24 hours);
Slow evaporation of saturated solutions at RT.In addition, 10 vapor diffusion experiments were also conducted (Table 4) at RT. These solvent systems were selected based on API solubility, and the miscibility and boiling points of solvents and anti-solvents.
All solid outputs from the screen were isolated and analyzed by FT-Raman spectroscopy and/or PXRD. The samples were then sorted into polymorphs based on Raman spectral match. Representative samples from each of the polymorphs were further analyzed by additional techniques (PXRD, DSC, TGA-IR, PLM, etc.) as appropriate and as sample quantity permitted.
Characterization data and more detailed discussion of the different crystal forms are summarized in the following sections. In TABLES 3 and 4, A, B, C, D, or E, etc. indicates the respective crystalline polymorph obtained. “Amorphous” indicates an amorphous solid was obtained, (-) indicates the experiment was not performed, and a blank space indicates no solid was obtained. The screening study led to one hydrated form (Polymorph A) and multiple solvated forms (Polymorph s B-E). […]

[6] = Solubility in screen solvents derived from loading in solvent and dissolution; conditions: organic solvent or mixture, thermodynamic from solid
Excerpt: They were selected based on a diverse range of properties including dielectric constants, boiling points, and H-bonding that are important to crystallization and crystal-form discovery. The values in TABLE 2 are derived from ACH-0142684 loading in solvent and dissolution. The symbol † indicates the solubility value is found in TABLE 1.

Compound: COc1ccc2c(O[C@@H]3C[C@H]4C(=O)N[C@]5(C(=O)[N-]S(=O)(=O)C6CC6)C[C@H]5/C=C\CCCCC[C@H](CC(=O)N5CCCC(F)(F)C5)C(=O)N4C3)cc(-c3nc(C(C)C)cs3)nc2c1C.[Na+] [ACH-0142684 sodium salt]
- solubility at 2 days [1]: ~50 mg/mL
- solubility ([2]; organic solvent or mixture, ACN): 1 to 1.2 mg/mL
- solubility ([2]; organic solvent or mixture, DCM): 49 to 98 mg/mL
- solubility ([2]; organic solvent or mixture, DMSO): 97 to 129 mg/mL
- solubility ([2]; organic solvent or mixture, EtOAc): < 1.02 mg/mL
- solubility ([2]; organic solvent or mixture, IPA): 1.1 to 1.3 mg/mL
- solubility ([2]; organic solvent or mixture, MTBE): < 0.93 mg/mL
- solubility ([2]; organic solvent or mixture, MeOH): 92 to 123 mg/mL
- solubility ([2]; organic solvent or mixture, TFE): 100 to 133 mg/mL
- solubility ([2]; organic solvent or mixture, THF): 9.2 to 18.4 mg/mL
- solubility ([2]; organic solvent or mixture, Toluene): < 1.04 mg/mL
- solubility ([2]; organic solvent or mixture, acetone): 5.7 to 14 mg/mL
- solubility ([2]; Water): < 0.99 mg/mL

Compound: COc1ccc2c(O[C@@H]3C[C@H]4C(=O)N[C@]5(C(=O)[N-]S(=O)(=O)C6CC6)C[C@H]5/C=C\CCCCC[C@H](CC(=O)N5CCCC(F)(F)C5)C(=O)N4C3)cc(-c3nc(C(C)C)cs3)nc2c1C.[Na+] [Polymorph B]
- Form stability on drying (PXRD of dried sample) ([3]; vacuum oven at 50° C. for 16 hours): does not show any change in form but the peaks appear to be broader

Compound: COc1ccc2c(O[C@@H]3C[C@H]4C(=O)N[C@]5(C(=O)[N-]S(=O)(=O)C6CC6)C[C@H]5/C=C\CCCCC[C@H](CC(=O)N5CCCC(F)(F)C5)C(=O)N4C3)cc(-c3nc(C(C)C)cs3)nc2c1C.[Na+] [Polymorph A]
- Relative stability of Polymorphs A and G (PXRD of isolated solids) [4]: the more stable form at room temperature
- Form stability on drying (PXRD of dried sample) ([3]; vacuum oven at 55° C. overnight, small flow of nitrogen): does not show any change in form or crystallinity
- Form stability indicated by crystallization screen outcome [5]: the most stable form at the crystallization conditions studied; also recorded: stable form at/around room temperature

Compound: COc1ccc2c(O[C@@H]3C[C@H]4C(=O)N[C@]5(C(=O)NS(=O)(=O)C6CC6)C[C@H]5/C=C\CCCCC[C@H](CC(=O)N5CCCC(F)(F)C5)C(=O)N4C3)cc(-c3nc(C(C)C)cs3)nc2c1C [ACH-0142684]
- solubility ([6]; 1,4-Dioxane): < 50 mg/mL
- solubility ([6]; 1-Butanol): < 50 mg/mL
- solubility ([6]; 1-Methoxy-2-propanol): > 80 mg/mL
- solubility ([6]; 1-propanol): < 50 mg/mL
- solubility ([6]; 2-Butanone): < 50 mg/mL
- solubility ([6]; 2-Methoxyethyl ether): < 90 mg/mL
- solubility ([6]; 2-methoxyethanol): > 93 mg/mL
- solubility ([6]; 2-propanol with 20 vol % water, 2-propanol: 20 vol % Water): < 95 mg/mL
- solubility ([6]; 2-propanol: 5 vol % Water): < 50 mg/mL
- solubility ([6]; 2-propanol: 10 vol %): < 50 mg/mL
- solubility ([6]; 4-Methyl-2-pentanone): < 50 mg/mL
- solubility ([6]; Acetone: 5 vol % Water): < 50 mg/mL
- solubility ([6]; Acetone: 10 vol % Water): < 99 mg/mL
- solubility ([6]; Acetonitrile: 5 vol % Water): < 50 mg/mL
- solubility ([6]; Acetonitrile: 10 vol %): < 50 mg/mL
- solubility ([6]; Chlorobenzene): < 50 mg/mL
- solubility ([6]; Chloroform): > 153 mg/mL
- solubility ([6]; Cyclohexane): < 50 mg/mL
- solubility ([6]; Cyclohexanone): > 87 mg/mL
- solubility ([6]; DMF): > 93 mg/mL
- solubility ([6]; Dimethyl Carbonate): < 50 mg/mL
- solubility ([6]; Dioxane: 10 vol % Water): > 93 mg/mL
- solubility ([6]; EtOAc:pentane (1:1)): < 50 mg/mL
- solubility ([6]; EtOAc:pentane (1:4)): < 50 mg/mL
- solubility ([6]; EtOAc:pentane (1:10)): < 50 mg/mL
- solubility ([6]; EtOH): < 72 mg/mL
- solubility ([6]; Isopropyl acetate): < 50 mg/mL
- solubility ([6]; Isopropyl ether): < 50 mg/mL
- solubility ([6]; MeOAc): < 50 mg/mL
- solubility ([6]; Methanol: 5 vol % Water): > 177 mg/mL
- solubility ([6]; Methanol: 10 vol % Water): > 85 mg/mL
- solubility ([6]; Pentane): < 50 mg/mL
- solubility ([6]; THF: 5 vol % Water): > 85 mg/mL
- solubility ([6]; THF: 10 vol % Water): > 107 mg/mL
- solubility ([6]; acetone with 20 vol % water, Acetone: 20 vol % Water): < 96 mg/mL
- solubility ([6]; nitromethane): < 50 mg/mL
